Laboratory results: ChEMBL document CHEMBL3885861, “Open TG-GATES”

Species: Rattus norvegicus
Test: Open TG-GATES - Regimen: Single
Type: toxicity, organism-based, Sprague-Dawley
Set-up: regimen Single, gender Male, age 6 weeks
Settings: in vivo, iv, 10 mg/kg, route intravenous injection, dose level High; for Na / PL / RALB / TBIL / TC / TG / TP / gamma-GTP / A/G / ALP / ALT / AST / BUN / CRE / Ca / Cl / DBIL / GLC / IP / K / LDH: tissue Plasma; for APTT / Fbg / Hb / Ht / MCH / MCHC / MCV / PT / Plat / RBC / Ret / WBC: tissue Blood; for KIDNEY_L / KIDNEY_R / KIDNEY_TOTAL: tissue Kidney; for LIVER: tissue Liver

For `C[C@@H]1C[C@@H]([C@H](O)CC2CC(=O)NC(=O)C2)C(=O)[C@@H](C)C1` [CYCLOHEXIMIDE], the Na (6 h) was 138.8 meq/L, the PL (6 h) was 65 mg/dL and the RALB (6 h) was 2.8 g/dL. It also gave a TBIL (6 h) of 0.002 mg/dL, a TC (6 h) of 39 mg/dL and a TG (6 h) of 20.2 mg/dL. For the same compound, the TP (6 h) was 5.3 g/dL, the gamma-GTP (6 h) was 3.8 IU/L and the TERMINAL_BW (9 h) was 206.3 g. It also gave an APTT (9 h) of 47.2 s, a Fbg (9 h) of 228.4 mg/dL and a Hb (9 h) of 18.2 g/dL. It also gave a Ht (9 h) of 56.4%, an MCH (9 h) of 21.7 pg and an MCHC (9 h) of 32.3%. For the same compound, the MCV (9 h) was 67.4 fL, the PT (9 h) was 40.1 s and the Plat (9 h) was 112.8 x10_4/uL. The RBC (9 h) was 836.4 x10_4/ul, the Ret (9 h) was 8.9% and the WBC (9 h) was 386.2 x10_2/uL. For the same compound, the KIDNEY_L (9 h) was 1.1 g, the KIDNEY_R (9 h) was 1.1 g and the KIDNEY_TOTAL (9 h) was 2.1 g. It also gave an LIVER (9 h) of 7.9 g, an A/G (9 h) of 1.4 and an ALP (9 h) of 1345.4 IU/L. The ALT (9 h) was 87.8 IU/L, the AST (9 h) was 291.8 IU/L and the BUN (9 h) was 94.4 mg/dL. It also gave a CRE (9 h) of 0.3 mg/dL, a Ca (9 h) of 6.6 mg/dL and a Cl (9 h) of 109 meq/L. It also gave a DBIL (9 h) of 0.0125 mg/dL, a GLC (9 h) of 215.2 mg/dL and an IP (9 h) of 17.4 mg/dL. It also gave a K (9 h) of 6.6 meq/L, an LDH (9 h) of 1399 IU/L and a Na (9 h) of 136 meq/L. For the same compound, the PL (9 h) was 69.6 mg/dL, the RALB (9 h) was 2.9 g/dL and the TBIL (9 h) was 0.01 mg/dL. For the same compound, the TC (9 h) was 34.4 mg/dL, the TG (9 h) was 61.4 mg/dL and the TP (9 h) was 5.2 g/dL. The gamma-GTP (9 h) was 3 IU/L, the TERMINAL_BW (24 h) was 198.6 g and the APTT (24 h) was 70.4 s. The Fbg (24 h) was 149.5 mg/dL, the Hb (24 h) was 16.4 g/dL and the Ht (24 h) was 49.4%. It also gave an MCH (24 h) of 20.9 pg, an MCHC (24 h) of 33.3% and an MCV (24 h) of 62.8 fL. It also gave a PT (24 h) of 35.1 s, a Plat (24 h) of 81.8 x10_4/uL and an RBC (24 h) of 784.5 x10_4/ul. The Ret (24 h) was 7.3%, the WBC (24 h) was 413.2 x10_2/uL and the KIDNEY_L (24 h) was 1 g. The KIDNEY_R (24 h) was 1 g, the KIDNEY_TOTAL (24 h) was 2 g and the LIVER (24 h) was 8 g. The A/G (24 h) was 1.3, the ALP (24 h) was 903.5 IU/L and the ALT (24 h) was 57.5 IU/L. The AST (24 h) was 192 IU/L, the BUN (24 h) was 106 mg/dL and the CRE (24 h) was 0.3 mg/dL. For the same compound, the Ca (24 h) was 7 mg/dL, the Cl (24 h) was 112 meq/L and the DBIL (24 h) was 0.02 mg/dL. It also gave a GLC (24 h) of 134 mg/dL, an IP (24 h) of 13.4 mg/dL and a K (24 h) of 5.3 meq/L. The LDH (24 h) was 1196.5 IU/L, the Na (24 h) was 141.5 meq/L and the PL (24 h) was 80 mg/dL. The RALB (24 h) was 2.5 g/dL, the TBIL (24 h) was 0.045 mg/dL and the TC (24 h) was 59 mg/dL. It also gave a TG (24 h) of 66.5 mg/dL, a TP (24 h) of 4.5 g/dL and a gamma-GTP (24 h) of 4 IU/L.
